Results on nine compounds are retold here after patent US4124726A, “Anti-inflammatory agent of benzoyl derivative” (priority 1976, dated 1978).

One data set has as its system thrombosis. Description: inhibiting effect on thrombosis (arterio-venous by-pass, silk thread). The settings on record: for inhibition in vivo at 100 mg/kg: Rattus norvegicus, read-out: Thrombosis inh. The data set is classed as in vivo, SD type male rats. Here is the method: Inhibiting effect on thrombosis:
The inhibiting effects of the samples of the invention on thrombosis were tested by the following test method.
A 0.5 ml of 50 μ/ml of the heparin physiological saline was added through the polyethylene tube before the first blood circulation. After the blood circulation for 15 minutes, the circulation was stopped in the middle of the tubing at artery side with a pinch cock.
Then, 0.2 ml of the heparin physiological saline was added to remove the blood coagulates on the tubing wall and another new polyethylene tubing filled with the heparin solution and containing a piece of new silk thread was attached between the venous and artery tubing ends.
The blood circulation was reestablished by opening the pinch cock. After 15 minutes, the wet weight of thrombus on the silk thread was similarly measured. In the same manner, the third circulation was performed and wet weight of thrombus measured.
The amount of thrombus was given by the equation A. [formula] Each sample was suspended in an aqueous solution of sodium carboxymethyl cellulose and the oral dose of the suspension (100 mg/kg) was performed at 5 hours before the first blood circulation. The amount of thrombus after the oral dose of the sample was calculated in the same manner as that of control circulations.
The thrombosis inhibition rate was given by the equation B. [formula]

A further data set can be described thus: in vivo. Conditions: mouse, po. Here is the method:
Each sample was dissolved in olive oil or dispersed in 1% Tween 20 aqueous solution.

For a further data set, the system named is platelet aggregation. Put plainly: blood platelet aggregation inhibition, collagen as inducer. The settings on record: 10^-4 mole, rabbit PRP; for inhibition at 100 µM: Oryctolagus cuniculus, Platelet, read-out: Blood platelet agg. inh. (percentage inhibition of platelet aggregation). Type of data set: cell-based. The source says:
Blood platelet aggregation inhibiting effect
Male rabbits (Japan original white strain 3.3 to 3.6 kg) were anesthetized with Thiopental sodium and blood was sampled from the carotid artery.

Data set [1] concerns painful stretchings induced by acetic acid. Put plainly: acetic acid induced stretching (analgesic effect). Conditions: for Analgesic (percentage diminution of times of painful stretchings): 100 mg/kg oral, 0.7% acetic acid i.p., mice; for inhibition in vivo at 100 mg/kg: Mus musculus, po, read-out: Analgesic (percentage diminution of times of painful stretchings).
Method: Each sample was orally administrated in the dosage of 100 mg/kg before injection of acetic acid.
The next data set concerns carragheenin edema. Description: acute carragheenin edema inhibition (anti-inflammatory effect). Type of data set: in vivo, male rats. The settings on record: for Anti-inf. (edema inhibition rate) / inhibition in vivo at 100 mg/kg: 100 mg/kg oral; for inhibition in vivo at 100 mg/kg / ED50: Rattus norvegicus; for inhibition in vivo at 100 mg/kg: read-out: Anti-inf. (edema inhibition rate); for ED50: read-out: 50% inhibition rate ED50. Here is the method: The edema was induced by subcutaneous injection of 1% carraheenin suspension in saline to the hind paws of male rats weighing 150 to 180 g. Each sample was orally given at the dosage of 100 mg/kg just before the inoculation of carragheenin.

The mark [2] stands for this setting: 100 mg/kg oral, 5 hours before first circulation, rats.
Where [3] appears, read: carragheenin edema, rats, Table 2.
Where [4] appears, read: oral, carragheenin edema, rats, Table 2.

Read-outs that look alike come from different tables or passages of the source. Where only a bound is given, the exact number is not on record here.

For orientation: LD50 means the dose at which mortality reaches 50%. Lower therefore signals greater toxicity. Compound `COc1ccc(C(=O)C(=O)c2ccccc2)cc1` had a Thrombosis inh. in the data set on thrombosis (setting [2]) of 18.3%. The same compound registered an LD50 at 72 h in “in vivo” of 10000 mg/kg. Moreover, the “Blood platelet agg. inh. (percentage inhibition of platelet aggregation)” value with platelet aggregation worked out at 20.1%. For the same compound, the “Analgesic (percentage diminution of times of painful stretchings)” value in data set [1] was 10.2%. Also, the “Anti-inf. (edema inhibition rate)” value in the data set with carragheenin edema (setting [3]) came out at 43.9%.
The term inhibition denotes how much of the control response was suppressed. As for `CCCCCCc1ccc(C(=O)c2ccc(C)cc2C)cc1` [Active ingredient No. 4], the inhibition in vivo at 100 mg/kg with thrombosis (setting [2]) came out at 15.9%; in data set [1], 16.3%; with carragheenin edema (setting [3]), 44.2%. This compound yielded an LD50 at 72 h in “in vivo” of 4000 mg/kg. Moreover, the inhibition at 100 µM in the data set with platelet aggregation was found to be 20.5%.
The term ED50 denotes the dose that gives a 50% effect, or the effect in half of the subjects. Regarding `CCCCc1ccc(C(=O)c2ccccc2)cc1` [compound 19], the inhibition in vivo at 100 mg/kg in the data set with thrombosis (setting [2]) stood at 7.9%. In the data set “in vivo”, this compound displayed a 50% lethal dose (LD50) at 72 h of 2400 mg/kg. Also, the “Blood platelet agg. inh. (percentage inhibition of platelet aggregation)” value with platelet aggregation turned out to be 18.6%. Also, in data set [1], the “Analgesic (percentage diminution of times of painful stretchings)” value is recorded as 30.1%. In addition, the ED50 in the data set on carragheenin edema (setting [4]) is 25 mg/kg.
Regarding `O=C(c1ccccc1)c1ccccc1` [compound 27], the Thrombosis inh. with thrombosis (setting [2]) was 25.9%. In the data set “in vivo”, this compound came in with a median lethal dose (LD50) at 72 h of 3700 mg/kg. The “Blood platelet agg. inh. (percentage inhibition of platelet aggregation)” value with platelet aggregation turned out to be 25.7%. In addition, in data set [1], the “Analgesic (percentage diminution of times of painful stretchings)” value is reported as 13.2%. In the data set on carragheenin edema (setting [3]), the “Anti-inf. (edema inhibition rate)” value was determined as 47.7%. Moreover, in the data set on carragheenin edema (po), the median effective dose (ED50) amounted to 120 mg/kg.
On to `COc1ccc(C(=O)c2ccccc2)cc1` [compound 28], for which the inhibition in vivo at 100 mg/kg in the data set on thrombosis (po) was 7.3%. Moreover, the LD50 at 72 h in “in vivo” was more than 10000 mg/kg. For the same compound, in the data set with platelet aggregation, the “Blood platelet agg. inh. (percentage inhibition of platelet aggregation)” value is 20.4%. The “Analgesic (percentage diminution of times of painful stretchings)” value in data set [1] is listed as 4.2%. The “Anti-inf. (edema inhibition rate)” value in the data set on carragheenin edema (setting [3]) was determined as 44.1%.
Turning to `Cc1cc(C)c(C(=O)c2ccccc2)c(C)c1` [compound 30], the inhibition in vivo at 100 mg/kg with thrombosis (setting [2]) was found to be 44.8%; in data set [1], 13.4%; in the data set with carragheenin edema (setting [3]), 64.7%. In the data set “in vivo”, the LD50 at 72 h came out at 1500 mg/kg. In addition, the inhibition at 100 µM with platelet aggregation worked out at 8.7%. The ED50 in the data set on carragheenin edema (setting [4]) stood at 45 mg/kg.
Turning to `Cc1ccc(C)c(C(=O)c2ccccc2)c1` [compound 38], in the data set with thrombosis (setting [2]), the inhibition in vivo at 100 mg/kg is 8.3%. The LD50 at 72 h in the data set “in vivo” turned out to be 1000 mg/kg. Besides, the “Blood platelet agg. inh. (percentage inhibition of platelet aggregation)” value in the data set on platelet aggregation was determined as 20.9%. For the same compound, the “Analgesic (percentage diminution of times of painful stretchings)” value in data set [1] came to 18.0%. Also, the ED50 with carragheenin edema (setting [4]) came out at 170 mg/kg.
Turning to `Cc1ccc(C(=O)C(=O)c2ccccc2)cc1` [compound 54], the Thrombosis inh. in the data set with thrombosis (setting [2]) came to 20.3%. Besides, in the data set with platelet aggregation, the “Blood platelet agg. inh. (percentage inhibition of platelet aggregation)” value is given as 15.4%. Further, the “Analgesic (percentage diminution of times of painful stretchings)” value in data set [1] is on record as 11.3%. For the same compound, the “Anti-inf. (edema inhibition rate)” value in the data set with carragheenin edema (setting [3]) was 25.5%.
Consider `O=C(c1ccccc1)c1ccc(C2CCCCC2)cc1` [compound 73], for which the inhibition in vivo at 100 mg/kg in the data set on thrombosis (setting [2]) came out at 28.8%; in data set [1] it was 10%; in the data set on carragheenin edema (setting [3]) it was 32.1%. The LD50 at 72 h in “in vivo” is 6000 mg/kg. Further, the inhibition at 100 µM in the data set on platelet aggregation worked out at 20.3%.
